Data published in US12611411B2, “Triple-agent therapy for cancer treatment” (CYTOMETRIC THERAPEUTICS, INC., priority 2021, dated 2026).

Columns and labels:
[1] = tested on: live cancer cell cultures; test: Cytometric testing of the patient's cancer cells; type: cell-based, human; conditions: for activity in cytometric testing: Example 14, incompletely resected pancreatic cancer; for sensitivity in cytometric testing: Example 18, ascites of metastatic carcinoma of the urachus
From the text: Also disclosed are methods for in vitro testing a drug combination on cancer cells of a subject for cancer cell survival, wherein the drug combination comprises tamoxifen, gefitinib, and vinorelbine. The in vitro testing can comprise administering tamoxifen and gefitinib prior to, together with, and/or after, administering vinorelbine. The in vitro testing can comprise measuring the cancer cell survival. Suitable in vitro tests and methods for measuring the cancer cell survival include Differential Staining Cytotoxicity Assay (DiSC), MTT assay, ATP assay, and fluorescein diacetate assay (FDA). MTT assay is a colorimetric assay for assessing cell metabolic activity. Cellular enzymes are capable of reducing the tetrazolium dye MTT 3-(4,5-dimethylthiazol-2-yl)-2,5-diphenyltetrazolium bromide to its insoluble formazan, which has a purple color. ATP assays are procedures that can measure cell viability based on detection of ATP. All living cells, including bacteria, can be detected with ATP assays. Several detection methods can be used, such as colorimetric, fluorescent and bioluminescent. FDA uses a cell-permeant esterase substrate fluorescein diacetate that can serve as a viability probe and that measures both enzymatic activity, which is required to activate its fluorescence, and cell-membrane integrity, which is required for intracellular retention of their fluorescent product.
Use of tamoxifen at a high dose of 80 milligrams per meter squared (the typical dose in conventional cancer treatment is 20 mg daily) and high dose of gefitinib (187 milligrams per meter squared twice daily for 3 days—the typical dose in conventional cancer treatment is 250 mg daily) has been found in cytometric testing using live cancer cell cultures to transport vinorelbine into the cancer cell, producing extraordinary synergy in causing programmed apoptosis in the cancer cells (programmed cancer cell death) while sparing much of the normal tissues and giving dramatic clinical outcomes.

[2] = tested on: squamous cell carcinoma of the breast; test: TGV therapy case study, triple-negative squamous cell carcinoma of the breast (Example 11); type: in vivo, human; conditions: person, before TGV
From the text: (§1) The 17 case studies represent patients with metastatic esophageal cancer, metastatic skin cancer, metastatic breast cancer, leptomeningeal breast cancer, metastatic prostate cancer, glioblastoma multiforme, lung cancer, bowel cancer, acute myelogenous leukemia, esthesioneuroblastoma, and urothelial cancer.

urothelial cancer = test: TGV therapy case study, urothelial cancer (Example 17); type: in vivo, human; conditions: person, before TGV (MVAC together with radiation therapy)
Protocol: as §1
A person with regionally advanced bladder cancer was presented with urothelial cancer in the trigone of their bladder. The patient was treated with radiation therapy and with dose dense MVAC (M—methotrexate, V—vinblastine, A—doxorubicin, C—Cisplatin). […] The patient was then treated with gemcitabine and cisplatin to which they had no response. The patient then had the retroperitoneal lymph nodes radiated to a complete response. The patient was followed monthly and when recurrent disease was discovered in the lung and mediastinum, they were started on Padcev® (Enfortumab vedotin), to which they had no response. The patient was then offered TGV. […] The patient had neutropenia within five days and was admitted. […] It was concluded that the patient should not be given repeated chemotherapy until their bone marrow had recovered.

| Compound | activity in cytometric testing [1] | response to prior chemotherapy [2] | response to prior therapy (urothelial cancer) | sensitivity in cytometric testing [1] |
| --- | --- | --- | --- | --- |
| O=c1[nH]cc(F)c(=O)[nH]1 [5-fluorouracil] | no evidence of response |  |  |  |
| O=P1(N(CCCl)CCCl)NCCCO1 (stereo not shown) [Cytoxan] |  | refractory |  |  |
| CC(=O)O[C@@]12CO[C@@H]1C[C@H](O)[C@@]1(C)C(=O)[C@H](O)C3=C(C)[C@@H](OC(=O)[C@H](O)[C@@H](NC(=O)OC(C)(C)C)c4ccccc4)C[C@@](O)([C@@H](OC(=O)c4ccccc4)[C@H]21)C3(C)C [Taxotere] | no evidence of response | refractory |  |  |
| Enfortumab vedotin [Padcev®] |  |  | no response |  |
| O=C1[O][Pt]2([NH][C@@H]3CCCC[C@H]3[NH]2)[O]C1=O [oxaliplatin] | no evidence of response |  |  | hypersensitivity |
| Nc1ccn([C@@H]2O[C@H](CO)[C@@H](O)C2(F)F)c(=O)n1 [gemcitabine] | no evidence of response |  |  | hypersensitivity |
| COc1cccc2c1C(=O)c1c(O)c3c(c(O)c1C2=O)C[C@@](O)(C(=O)CO)C[C@@H]3O[C@H]1C[C@H](N)[C@H](O)[C@H](C)O1 [Adriamycin] |  | refractory |  |  |
